Patent publication US12187723B2 (BRISTOL-MYERS SQUIBB COMPANY, priority 2019, dated 2025)
pIC50: −log10 of the molar value.

Columns and labels:
human TLR7 = molecular target: T1, human TLR7 (Homo sapiens, UniProt Q9NYK1); experiment: TLR7 inhibition reporter assay (HEK-Blue SEAP); type: cell-based; details: HEK-Blue cells overexpressing human TLR7, gardiquimod 7.5 μM, 22 hour incubation
T1 construct: host or cells: HEK-Blue cells
T1 sequence (Q9NYK1 27-1049): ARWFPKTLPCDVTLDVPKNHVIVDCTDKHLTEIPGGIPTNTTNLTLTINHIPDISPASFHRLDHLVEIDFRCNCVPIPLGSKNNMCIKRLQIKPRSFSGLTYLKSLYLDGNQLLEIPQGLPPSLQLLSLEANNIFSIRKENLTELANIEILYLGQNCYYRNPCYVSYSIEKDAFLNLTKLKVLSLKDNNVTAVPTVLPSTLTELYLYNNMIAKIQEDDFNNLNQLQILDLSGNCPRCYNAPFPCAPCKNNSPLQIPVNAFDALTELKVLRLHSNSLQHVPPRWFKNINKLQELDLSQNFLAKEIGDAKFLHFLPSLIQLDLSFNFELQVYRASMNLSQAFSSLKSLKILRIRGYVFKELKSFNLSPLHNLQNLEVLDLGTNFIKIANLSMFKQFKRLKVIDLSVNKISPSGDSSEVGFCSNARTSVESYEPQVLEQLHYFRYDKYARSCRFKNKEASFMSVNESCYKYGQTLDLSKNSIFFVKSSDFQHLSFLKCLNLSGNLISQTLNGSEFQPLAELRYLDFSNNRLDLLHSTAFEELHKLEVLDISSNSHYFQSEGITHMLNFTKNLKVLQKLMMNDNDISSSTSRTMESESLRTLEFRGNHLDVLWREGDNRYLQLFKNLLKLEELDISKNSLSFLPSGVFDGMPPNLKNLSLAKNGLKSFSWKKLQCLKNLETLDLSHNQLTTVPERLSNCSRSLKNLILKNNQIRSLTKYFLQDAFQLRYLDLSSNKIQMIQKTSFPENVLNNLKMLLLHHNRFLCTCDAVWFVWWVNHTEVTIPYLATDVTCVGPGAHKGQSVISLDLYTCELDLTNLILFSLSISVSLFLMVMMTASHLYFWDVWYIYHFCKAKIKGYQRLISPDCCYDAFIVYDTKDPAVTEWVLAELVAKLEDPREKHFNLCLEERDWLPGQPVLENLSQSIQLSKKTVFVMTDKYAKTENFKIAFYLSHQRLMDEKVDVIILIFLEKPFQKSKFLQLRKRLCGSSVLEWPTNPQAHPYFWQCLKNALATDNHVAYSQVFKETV
Outline: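 HEK-Blue reporter cells (15,000/well TLR7, 20,000 TLR8) exposed to compound over 0.05 nM–50 μM, agonist-stimulated (R848 for TLR8, gardiquimod for TLR7), 22 h at 37 °C, 5% CO2. SEAP read with HEK-Blue Detection; % inhibition relative to agonist-plus-DMSO and known-inhibitor controls.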

human TLR9 = molecular target: T2, human TLR9 (Homo sapiens, UniProt Q9NR96); experiment: TLR9 inhibition reporter assay (HEK-Blue SEAP); type: cell-based; details: HEK-Blue cells overexpressing human TLR9, ODN2006 5 nM, 22 hour incubation
T2 construct: host or cells: HEK-Blue cells
T2 sequence (Q9NR96 26-1032): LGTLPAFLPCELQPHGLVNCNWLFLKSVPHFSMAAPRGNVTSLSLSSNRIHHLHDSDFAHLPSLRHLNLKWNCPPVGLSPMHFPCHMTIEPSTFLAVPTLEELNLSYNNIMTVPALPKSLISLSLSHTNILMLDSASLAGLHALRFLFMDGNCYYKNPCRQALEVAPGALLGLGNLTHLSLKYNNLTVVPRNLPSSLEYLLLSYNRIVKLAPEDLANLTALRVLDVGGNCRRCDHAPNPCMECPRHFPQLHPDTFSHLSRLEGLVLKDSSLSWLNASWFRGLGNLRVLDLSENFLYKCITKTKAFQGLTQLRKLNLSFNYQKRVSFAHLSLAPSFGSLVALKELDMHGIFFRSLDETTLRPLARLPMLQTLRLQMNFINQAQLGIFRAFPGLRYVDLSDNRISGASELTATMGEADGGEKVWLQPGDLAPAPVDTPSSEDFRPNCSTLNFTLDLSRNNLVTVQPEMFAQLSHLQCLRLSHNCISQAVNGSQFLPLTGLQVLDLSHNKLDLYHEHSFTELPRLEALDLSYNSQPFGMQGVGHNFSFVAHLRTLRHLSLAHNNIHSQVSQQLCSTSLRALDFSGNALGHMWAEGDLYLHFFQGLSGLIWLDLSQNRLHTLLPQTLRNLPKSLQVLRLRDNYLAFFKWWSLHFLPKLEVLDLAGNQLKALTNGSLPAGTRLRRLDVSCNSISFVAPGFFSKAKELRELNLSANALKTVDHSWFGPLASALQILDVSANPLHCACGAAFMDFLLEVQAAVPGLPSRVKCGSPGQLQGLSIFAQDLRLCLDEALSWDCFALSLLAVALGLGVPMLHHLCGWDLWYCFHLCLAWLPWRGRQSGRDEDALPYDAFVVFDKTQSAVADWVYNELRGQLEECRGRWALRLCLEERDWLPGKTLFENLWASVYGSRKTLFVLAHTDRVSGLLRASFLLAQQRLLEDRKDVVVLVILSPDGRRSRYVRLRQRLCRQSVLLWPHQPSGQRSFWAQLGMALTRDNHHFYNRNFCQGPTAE
Outline: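 Agonists used: gardiquimod 7.5 μM (TLR7), R848 15.9 μM (TLR8), ODN2006 5 nM (TLR9), added after 30 min room-temperature compound pre-treatment (0.05 nM–50 μM) of receptor-overexpressing HEK-Blue cells. SEAP reporter (NF-κB/AP-1 driven) read after 22 h at 37 °C; inhibition scaled between agonist+DMSO and reference-inhibitor wells.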

Row | SMILES | pIC50 (human TLR7) | pIC50 (human TLR9)
1 | COc1cc(-c2ccc3c(c2)[nH]c(=O)n3C2CCN(C3COC3)CC2)cn2ncnc12 [Example 80, 5-(8-methoxy-[1,2,4]triazolo[1,5-a]pyridin-6-yl)-1-(1-(oxetan-3-yl)piperidin-4-yl)-1,3-dihydro-2H-benzo[d]imidazol-2-one] | < 5.51 | 4.40
2 | CCN1CCC[C@@H](n2c(=O)[nH]c3cc(-c4cc(OC)c5ncnn5c4)c(C)cc32)C1 [Example 52, (R)-1-(1-ethylpiperidin-3-yl)-5-(8-methoxy-[1,2,4]triazolo[1,5-a]pyridin-6-yl)-6-methyl-1,3-dihydro-2H-benzo[d]imidazol-2-one] | 7.19 | 5.53
3 | CCC(CC)CN1CCC[C@@H](n2c(=O)[nH]c3cc(-c4cc(C)c5ncnn5c4)c(C)cc32)C1 [Example 45, (R)-1-(1-(2-ethylbutyl)piperidin-3-yl)-6-methyl-5-(8-methyl-[1,2,4]triazolo[1,5-a]pyridin-6-yl)-1,3-dihydro-2H-benzo[d]imidazol-2-one] | 7.53 | 5.52
4 | Cc1cc2c(cc1-c1cc(C)c3ncnn3c1)[nH]c(=O)n2[C@@H]1CCCN(CC2CC2)C1 [Example 37, (R)-1-(1-(cyclopropylmethyl)piperidin-3-yl)-6-methyl-5-(8-methyl-[1,2,4]triazolo[1,5-a]pyridin-6-yl)-1,3-dihydro-2H-benzo[d]imidazol-2-one] | 7.51 | 5.00
5 | COc1cc(-c2ccc3c(c2)[nH]c(=O)n3C2CCN(CC3CCOCC3)CC2)cn2ncnc12 [Example 78, 5-(8-methoxy-[1,2,4]triazolo[1,5-a]pyridin-6-yl)-1-(1-((tetrahydro-2H-pyran-4-yl)methyl)piperidin-4-yl)-1,3-dihydro-2H-benzo[d]imidazol-2-one] | 5.95 | 5.55
6 | CCCN[C@H]1CC[C@@H](n2c(=O)[nH]c3cc(-c4cc(OC)c5ncnn5c4)c(C)cc32)CC1 [Example 64, 5-(8-methoxy-[1,2,4]triazolo[1,5-a]pyridin-6-yl)-6-methyl-1-((1s,4s)-4-(propylamino)cyclohexyl)-1,3-dihydro-2H-benzo[d]imidazol-2-one] | 8.17 | 5.26
7 | CNC(=O)CN1CCC(n2c(=O)[nH]c3cc(-c4cc(OC)c5ncnn5c4)c(C)cc32)CC1 [Example 87, 2-(4-(5-(8-methoxy-[1,2,4]triazolo[1,5-a]pyridin-6-yl)-6-methyl-2-oxo-2,3-dihydro-1H-benzo[d]imidazol-1-yl)piperidin-1-yl)-N-methylacetamide] | 6.30 | 4.65
8 | COc1cc(-c2cc3[nH]c(=O)n([C@H]4CC[C@@H](N(C)C5CCOCC5)CC4)c3cc2C)cn2ncnc12 [Example 85, 5-(8-methoxy-[1,2,4]triazolo[1,5-a]pyridin-6-yl)-6-methyl-1-((1s,4s)-4-(methyl(tetrahydro-2H-pyran-4-yl)amino)cyclohexyl)-1,3-dihydro-2H-benzo[d]imidazol-2-one] | 7.67 | 5.10
9 | COc1cc(-c2ccc3c(c2)[nH]c(=O)n3C2CCN(C3CCC3)CC2)cn2ncnc12 [Example 83, 1-(1-cyclobutylpiperidin-4-yl)-5-(8-methoxy-[1,2,4]triazolo[1,5-a]pyridin-6-yl)-1,3-dihydro-2H-benzo[d]imidazol-2-one] | 5.61 | 5.27
10 | COc1cc(-c2cc3[nH]c(=O)n([C@@H]4CCCN(C(C)C)C4)c3cc2C)cn2ncnc12 [Example 53, (R)-1-(1-isopropylpiperidin-3-yl)-5-(8-methoxy-[1,2,4]triazolo[1,5-a]pyridin-6-yl)-6-methyl-1,3-dihydro-2H-benzo[d]imidazol-2-one] | 7.48 | 5.43
11 | Cc1cc2c(cc1-c1cc(C)c3ncnn3c1)[nH]c(=O)n2[C@H]1CC[C@@H](NCc2ncn(C)n2)CC1 [Example 33, 6-methyl-1-((1s,4s)-4-(((1-methyl-1H-1,2,4-triazol-3-yl)methyl)amino)cyclohexyl)-5-(8-methyl-[1,2,4]triazolo[1,5-a]pyridin-6-yl)-1,3-dihydro-2H-benzo[d]imidazol-2-one] | 6.86 | 4.68
12 | COc1cc(-c2cc3[nH]c(=O)n([C@@H]4CCCN(C)C4)c3cc2C)cn2ncnc12 [Example 51, (R)-5-(8-methoxy-[1,2,4]triazolo[1,5-a]pyridin-6-yl)-6-methyl-1-(1-methylpiperidin-3-yl)-1,3-dihydro-2H-benzo[d]imidazol-2-one] | 7.49 | 5.08
13 | CCC(CC)CN1CCC(n2c(=O)[nH]c3cc(-c4cc(OC)c5ncnn5c4)ccc32)CC1 [Example 75, 1-(1-(2-ethylbutyl)piperidin-4-yl)-5-(8-methoxy-[1,2,4]triazolo[1,5-a]pyridin-6-yl)-1,3-dihydro-2H-benzo[d]imidazol-2-one] | 5.87 | 5.56
14 | COc1cc(-c2cc3[nH]c(=O)n([C@@H]4CCCN(CC(C)(C)C)C4)c3cc2C)cn2ncnc12 [Example 71, (R)-5-(8-methoxy-[1,2,4]triazolo[1,5-a]pyridin-6-yl)-6-methyl-1-(1-neopentylpiperidin-3-yl)-1,3-dihydro-2H-benzo[d]imidazol-2-one] | 7.65 | 4.54
15 | COc1cc(-c2cc3[nH]c(=O)n([C@@H]4CCCN(CCC(F)(F)F)C4)c3cc2C)cn2ncnc12 [Example 68, (R)-5-(8-methoxy-[1,2,4]triazolo[1,5-a]pyridin-6-yl)-6-methyl-1-(1-(3,3,3-trifluoropropyl)piperidin-3-yl)-1,3-dihydro-2H-benzo[d]imidazol-2-one] | 6.38 | 4.57
16 | COc1cc(-c2cc3[nH]c(=O)n([C@@H]4CCCN(CC(C)C)C4)c3cc2C)cn2ncnc12 [Example 56, (R)-1-(1-isobutylpiperidin-3-yl)-5-(8-methoxy-[1,2,4]triazolo[1,5-a]pyridin-6-yl)-6-methyl-1,3-dihydro-2H-benzo[d]imidazol-2-one] | 8.27 | 5.32
17 | Cc1cc2c(cc1-c1cc(C)c3ncnn3c1)[nH]c(=O)n2[C@@H]1CCCN(CC2CCOCC2)C1 [Example 41, (R)-6-methyl-5-(8-methyl-[1,2,4]triazolo[1,5-a]pyridin-6-yl)-1-(1-((tetrahydro-2H-pyran-4-yl)methyl)piperidin-3-yl)-1,3-dihydro-2H-benzo[d]imidazol-2-one] | 7.91 | 5.09
